This note sets out measurements from patent publication US12661338B2, “Heterocyclic compounds as modulators of beta-catenin / TCF4 interaction” (AGENCY FOR SCIENCE, TECHNOLOGY AND RESEARCH, priority 2019, dated 2026).

In one data set the test system is DLD-1 cells. The data set can be described thus: Dose response viability of CRC cells (CellTiter-Glo). Type of data set: cell-based. The note with it: Homo sapiens, 24 hr. The procedure:
(§1) HCT116, DLD-1, and SW480 cells were seeded as 5,000 cells in 100 μL growth medium per well in 96-well plates (Corning cat. #3903). The next day, 5-fold dilutions of the compounds in DMSO were added to the cells at a final concentration of 1% DMSO. After 24 hr incubation, the viability of the cells was determined with CellTiter-Glo luminescent cell viability reagent (Promega cat. #G7573) according to the manufacturer's protocol.
(§2) The average signal from DMSO treated wells was calculated for each plate, and the signal from each treatment well was normalized against the average DMSO signal from the respective plate. The normalized values were plotted against the concentrations tested using GraphPad Prism 5, and the EC50 values were determined through either three- or four-parameter nonlinear regression.
(ATP-based viability assays read luminescence as a measure of living cells.)

In data set [1] the test system is HCT116 cells. The description is as above. Type of data set: cell-based. The note with it: Homo sapiens, HCT-116, 24 hr. The procedure: as §1, §2
The test system of the next data set is SW480 cells. The data set is described as above. The settings on record: Homo sapiens, 24 hr. It counts as cell-based. Here is the method:
as §1, §2

For data set [2], the system named is Wnt target proteins in HCT116 cells. The data set can be described thus: Western blotting of Wnt target and Wnt pathway proteins in HCT116 cells. Type of data set: cell-based. The note with it: 50 μM, 18 hr. The procedure: HCT116 cells were treated with compounds for 18 hr at a final concentration of 50 μM, 1% DMSO. Cells were lysed on ice in RIPA buffer (Thermo cat. #89900) containing cOmplete™ protease inhibitor cocktail (Roche cat. #11697498001) and PhosSTOP phosphatase inhibitor cocktail (Roche cat. #04906837001). 30 μg per sample of total cellular protein was resolved by SDS-PAGE and blotted onto PVDF membrane (Millipore cat. #IPVH00010). Primary antibodies were incubated overnight at 4° C. and the blots were detected with either IRDye 800CW goat anti-rabbit antibody (LI-COR cat. #926-32211) or IRDye 680RD goat anti-mouse antibody (LI-COR cat. #926-68070) at 1:5000 dilution. Signals were visualized with the LI-COR Odyssey CLx imaging system and bands were quantified using LI-COR Image Studio data analysis software. The primary antibodies used were Met (Cell Signalling Technology cat. #8198, 1:1000), cyclin D1 (Cell Signalling Technology cat. #2978, 1:1000), survivin (Santa Cruz cat. #sc-10811, 1:500), ECAD (Cell Signalling Technology cat. #3195, 1:1000), TCF4/TCF7L2 (Cell Signalling Technology cat. #2569, 1:1000), β-cat (Cell Signalling Technology cat. #8480, 1:1000), β-actin (Abcam cat. #ab8226, 1:3000).
(In general: A western blot detects proteins with antibodies after separation by electrophoresis.)

In data set [3] the test system is HCT116 cells. The data set is described as follows: Proliferation assay (CellTiter-Glo). It counts as cell-based. The settings on record: 10 μM daily. Here is the method: HCT 116 cells were seeded as 3,000 cells in 100 μL growth medium per well in 96-well plates (Corning cat. #3903) and allowed to attached overnight. Cells were then treated continuously with compounds at a final concentration of 10 μM, 0.1% DMSO, for 4 days with daily medium change. Cell proliferation each day was determined using CellTiter-Glo luminescent cell viability assay (Promega cat. #G7573) according to the manufacturer's protocol.

The subject of the next data set is HCT116 xenografts. The data set can be described thus: Mouse xenograft and compound treatment. It counts as in vivo. The settings on record: NSG mice, 50 mg/kg every other day i.p. Here is the method: HCT 116 cells (1×10^6 cells per site) and were implanted subcutaneously into the right flanks of 5-7 weeks old NSG (NOD scid gamma) (Jackson Laboratory, stock no. 005557) mice. When tumours reached a size of 60-100 mm^3 in volume, the animals were randomised to either the treatment or control group. Mice in the treatment group were administered with compound GB1874 at 50 mg/kg every other day via intraperitoneal injection. Simultaneously animals in the control group were administered with the diluent in the absence of compound. Compound GB1874 was prepared by dissolving it in DMSO to a concentration of 60 mg/mL and diluting it in 5% PEG 300, 5% Tween-80 in saline to a final concentration of 3 mg/mL, 5% DMSO. The length and width of tumours were measured by caliper once every 2 days. Tumour volumes were estimated using the following modified ellipsoidal formula: Tumour volume=½(length×width^2). Mice were euthanized when tumours in the control group reaches 2000 mm^3.

Another data set relates to CRC1775. The data set is described as follows: Viability of primary patient-derived colorectal cancer cell line. It counts as cell-based.
A further data set concerns CRC1850. Described as above. It counts as cell-based. The settings on record: CRC1850, Liver Met.
In a further data set the test system is CRC2001. The data set is described as above. It counts as cell-based.

Molecules are shown by their SMILES.

One may read the EC50 as the concentration giving half of the maximal effect. For `CCc1ccc(OCc2nnc(SC3CCCC3=O)n2C(C)c2ccccc2)cc1` (stereo not drawn) [GB1874], the EC50 in the data set with DLD-1 cells turned out to be 28 µM; with HCT116 cells [1], 45 µM; in the data set with SW480 cells, 24 µM; in the data set on CRC1775, 74 µM; in the data set on CRC1850, 37 µM; in the data set with CRC2001 it was 25 µM. The “expression of Wnt target genes c-Met, cyclin D1 and survivin (Western blotting)” value in data set [2] is “most effective at reducing the expression of these proteins”. The “expression of β-cat, ECAD and TCF4 (Western blotting)” value in [2] was “minimal effect on the expression of β-cat itself, or the expression of its partner proteins, such as ECAD and TCF4”. Moreover, in the data set with HCT116 cells [3], the “growth of HCT116 cells” value is “effectively inhibited the growth of HCT116 cells”. Further, the “expression of cyclin D1 and Ki67 in xenograft tumours (IHC)” value with HCT116 xenografts is recorded as “reduction in the expression of Wnt target gene, cyclin D1, as well as the proliferation marker, Ki67”. For the same molecule, the “systemic toxicity in the mice (body weight)” value in the data set with HCT116 xenografts (2 weeks) is reported as “minimal systemic toxicity”. For the same molecule, in the data set on HCT116 xenografts (2 weeks, 50 mg/kg), the “growth of HCT116 xenografts (tumour volume)” value is on record as “effectively inhibited the growth of HCT116 xenografts in vivo”.
